# Test results reported in ChEMBL document CHEMBL1201862, “PubChem BioAssay data set” (2004).
#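 Method: 48-hour compound exposure of cells in 96-well plates, five concentrations, linear interpolation of endpoints. GI50 marks 50% less growth.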 The source made the active and inactive calls. Cut-off read from the data, not from the text of the source: active = GI50 up to about 1.1 µM and inactive = higher.
# How the values were obtained:
# Assay in all cases: NCI-60 cell line screen, 48 h
# KM12 = tested on: KM12
# A498 = tested on: A498
# HOP-62 = tested on: HOP-62
# SNB-78 = tested on: SNB-78
# SF-268 = tested on: SF-268
# SNB-75 = tested on: SNB-75
# HT-29 = tested on: HT-29
# UO-31 = tested on: UO-31
# OVCAR-3 = tested on: OVCAR-3
# U-251 = tested on: U-251
# HOP-92 = tested on: HOP-92
# KM-20L2 = tested on: KM-20L2
# SNB-19 = tested on: SNB-19
# SR = tested on: SR
# SK-MEL-2 = tested on: SK-MEL-2
# IGROV-1 = tested on: IGROV-1
# NCI-H522 = tested on: NCI-H522
# M14 = tested on: M14
# K562 = tested on: K562
# SF-539 = tested on: SF-539
# LXFL 529 = tested on: LXFL 529
# Malme-3M = tested on: Malme-3M
# OVCAR-4 = tested on: OVCAR-4
# HL-60 = tested on: HL-60
# ACHN = tested on: ACHN
# UACC-62 = tested on: UACC-62
# UACC-257 = tested on: UACC-257
# M19-MEL = tested on: M19-MEL
# SF-295 = tested on: SF-295
# NCI-H23 = tested on: NCI-H23
# SK-MEL-28 = tested on: SK-MEL-28
# HCT-116 = tested on: HCT-116
# COLO 205 = tested on: COLO 205
# DMS-114 = tested on: DMS-114
# NCI-H460 = tested on: NCI-H460
# RPMI-8226 = tested on: RPMI-8226
# CCRF-CEM = tested on: CCRF-CEM
# OVCAR-5 = tested on: OVCAR-5
# MOLT-4 = tested on: MOLT-4
# RXF 393 = tested on: RXF 393
# SK-OV-3 = tested on: SK-OV-3
# MCF7 = tested on: MCF7
# HCT-15 = tested on: HCT-15
# T47D = tested on: T47D
# LOX IMVI = tested on: LOX IMVI
# BT-549 = tested on: BT-549
# 786-0 = tested on: 786-0
# SW-620 = tested on: SW-620
# Hs-578T = tested on: Hs-578T
# MDA-MB-435 = tested on: MDA-MB-435
# MDA-MB-231 = tested on: MDA-MB-231
# SN12C = tested on: SN12C
# SK-MEL-5 = tested on: SK-MEL-5
# DU-145 = tested on: DU-145
# NCI/ADR-RES = tested on: NCI/ADR-RES
# CAKI-1 = tested on: CAKI-1
# NCI-H226 = tested on: NCI-H226
# PC-3 = tested on: PC-3
# TK-10 = tested on: TK-10
# EKVX = tested on: EKVX
# HCC 2998 = tested on: HCC 2998
# OVCAR-8 = tested on: OVCAR-8
# MDA-N = tested on: MDA-N
# A549 = tested on: A549
# DMS-273 = tested on: DMS-273
# XF498 = tested on: XF498
structure (smiles),measurement,setting,value
COC1CCC(OS(C)(=O)=O)CO1 (centres undefined),GI50,KM12,> 100 µM (inactive)
same,GI50,A498,> 100 µM (inactive)
same,GI50,HOP-62,> 100 µM (inactive)
same,GI50,SNB-78,> 100 µM (inactive)
same,GI50,SF-268,86.7 µM (inactive)
same,GI50,SNB-75,60.5 µM (inactive)
same,GI50,HT-29,> 100 µM (inactive)
same,GI50,UO-31,> 100 µM (inactive)
same,GI50,OVCAR-3,> 100 µM (inactive)
same,GI50,U-251,> 100 µM (inactive)
same,GI50,HOP-92,> 100 µM (inactive)
same,GI50,KM-20L2,> 100 µM (inactive)
same,GI50,SNB-19,> 100 µM (inactive)
same,GI50,SR,24.7 µM (inactive)
same,GI50,SK-MEL-2,> 100 µM (inactive)
same,GI50,IGROV-1,> 100 µM (inactive)
same,GI50,NCI-H522,> 100 µM (inactive)
same,GI50,M14,> 100 µM (inactive)
same,GI50,K562,69 µM (inactive)
same,GI50,SF-539,> 100 µM (inactive)
same,GI50,LXFL 529,> 100 µM (inactive)
same,GI50,Malme-3M,> 100 µM (inactive)
same,GI50,OVCAR-4,> 100 µM (inactive)
same,GI50,HL-60,35 µM (inactive)
same,GI50,ACHN,> 100 µM (inactive)
same,GI50,UACC-62,> 100 µM (inactive)
same,GI50,UACC-257,> 100 µM (inactive)
same,GI50,M19-MEL,> 100 µM (inactive)
same,GI50,SF-295,> 100 µM (inactive)
same,GI50,NCI-H23,> 100 µM (inactive)
same,GI50,SK-MEL-28,> 100 µM (inactive)
same,GI50,HCT-116,> 100 µM (inactive)
same,GI50,COLO 205,> 100 µM (inactive)
same,GI50,DMS-114,> 100 µM (inactive)
same,GI50,NCI-H460,> 100 µM (inactive)
same,GI50,RPMI-8226,26.2 µM (inactive)
same,GI50,CCRF-CEM,22.5 µM (inactive)
same,GI50,OVCAR-5,42.2 µM (inactive)
same,GI50,MOLT-4,20.6 µM (inactive)
same,GI50,RXF 393,> 100 µM (inactive)
same,GI50,SK-OV-3,> 100 µM (inactive)
CC[C@@]1(O)C(=O)OCc2c1cc1n(c2=O)Cc2c-1nc1ccccc1c2/C=N\NC(=O)C(N)=O,GI50,KM12,> 92.3 µM (inactive)
same,GI50,MCF7,0.0189 µM (active)
same,GI50,HCT-15,14.7 µM
same,GI50,A498,0.457 µM (active)
same,GI50,T47D,< 0.01 µM (active)
same,GI50,LOX IMVI,0.0389 µM (active)
same,GI50,HOP-62,0.107 µM (active)
same,GI50,BT-549,3.44 µM (inactive)
same,GI50,SF-268,< 0.0292 µM (active)
same,GI50,SNB-75,0.558 µM (active)
same,GI50,786-0,0.0705 µM (active)
same,GI50,HT-29,4.36 µM (inactive)
same,GI50,SW-620,1.42 µM (inactive)
same,GI50,Hs-578T,56.9 µM (inactive)
same,GI50,UO-31,0.284 µM (active)
same,GI50,OVCAR-3,18.3 µM (inactive)
same,GI50,MDA-MB-435,2.32 µM (inactive)
same,GI50,U-251,0.0398 µM (active)
same,GI50,MDA-MB-231,31.8 µM (inactive)
same,GI50,HOP-92,0.222 µM (active)
same,GI50,SN12C,0.172 µM (active)
same,GI50,SNB-19,0.0383 µM (active)
same,GI50,SR,< 0.01 µM (active)
same,GI50,SK-MEL-5,0.222 µM (active)
same,GI50,SK-MEL-2,29 µM (inactive)
same,GI50,IGROV-1,4.79 µM (inactive)
same,GI50,NCI-H522,0.333 µM (active)
same,GI50,M14,0.208 µM (active)
same,GI50,K562,0.505 µM (active)
same,GI50,SF-539,0.0217 µM (active)
same,GI50,DU-145,0.0736 µM (active)
same,GI50,Malme-3M,7.06 µM (inactive)
same,GI50,OVCAR-4,38.3 µM (inactive)
same,GI50,HL-60,0.0582 µM (active)
same,GI50,ACHN,< 0.0151 µM (active)
same,GI50,NCI/ADR-RES,1.6 µM (inactive)
same,GI50,UACC-62,0.0332 µM (active)
same,GI50,UACC-257,14.4 µM (inactive)
same,GI50,CAKI-1,0.0655 µM (active)
same,GI50,SF-295,0.151 µM (active)
same,GI50,NCI-H226,0.219 µM (active)
same,GI50,PC-3,4.36 µM (inactive)
same,GI50,NCI-H23,0.0543 µM (active)
same,GI50,TK-10,43.6 µM (inactive)
same,GI50,EKVX,19.5 µM (inactive)
same,GI50,SK-MEL-28,17.8 µM (inactive)
same,GI50,HCT-116,0.161 µM (active)
same,GI50,COLO 205,> 50.1 µM (inactive)
same,GI50,HCC 2998,2.25 µM (inactive)
same,GI50,NCI-H460,0.0559 µM (active)
same,GI50,RPMI-8226,0.61 µM (active)
same,GI50,OVCAR-8,0.248 µM (active)
same,GI50,CCRF-CEM,< 0.01 µM (active)
same,GI50,OVCAR-5,25.8 µM (inactive)
same,GI50,MOLT-4,< 0.0138 µM (active)
same,GI50,RXF 393,3.04 µM (inactive)
same,GI50,MDA-N,5.61 µM (inactive)
same,GI50,SK-OV-3,0.467 µM (active)
same,GI50,A549,0.859 µM (active)
C=C(CO)CC(O)c1cc(OC)ccc1OC (centres undefined),GI50,KM12,> 100 µM (inactive)
same,GI50,HCT-15,> 100 µM
same,GI50,LOX IMVI,> 100 µM (inactive)
same,GI50,HOP-62,> 100 µM (inactive)
same,GI50,SF-268,> 100 µM (inactive)
same,GI50,SNB-75,> 100 µM (inactive)
same,GI50,786-0,> 100 µM (inactive)
same,GI50,HT-29,> 100 µM (inactive)
same,GI50,SW-620,> 100 µM (inactive)
same,GI50,UO-31,> 100 µM (inactive)
same,GI50,OVCAR-3,> 100 µM (inactive)
same,GI50,U-251,> 100 µM (inactive)
same,GI50,HOP-92,> 100 µM (inactive)
same,GI50,SN12C,> 100 µM (inactive)
same,GI50,SNB-19,> 100 µM (inactive)
same,GI50,DMS-273,> 100 µM (inactive)
same,GI50,SK-MEL-5,> 100 µM (inactive)
same,GI50,SK-MEL-2,> 100 µM (inactive)
same,GI50,IGROV-1,> 100 µM (inactive)
same,GI50,NCI-H522,> 100 µM (inactive)
same,GI50,M14,> 100 µM (inactive)
same,GI50,K562,> 100 µM (inactive)
same,GI50,SF-539,> 100 µM (inactive)
same,GI50,LXFL 529,> 100 µM (inactive)
same,GI50,Malme-3M,> 100 µM (inactive)
same,GI50,OVCAR-4,> 100 µM (inactive)
same,GI50,HL-60,> 100 µM (inactive)
same,GI50,ACHN,> 100 µM (inactive)
same,GI50,UACC-62,> 100 µM (inactive)
same,GI50,UACC-257,> 100 µM (inactive)
same,GI50,CAKI-1,> 100 µM (inactive)
same,GI50,M19-MEL,> 100 µM (inactive)
same,GI50,SF-295,> 100 µM (inactive)
same,GI50,NCI-H226,> 100 µM (inactive)
same,GI50,TK-10,> 100 µM (inactive)
same,GI50,EKVX,> 100 µM (inactive)
same,GI50,SK-MEL-28,> 100 µM (inactive)
same,GI50,COLO 205,> 100 µM (inactive)
same,GI50,HCC 2998,> 100 µM (inactive)
same,GI50,NCI-H460,> 100 µM (inactive)
same,GI50,RPMI-8226,> 100 µM (inactive)
same,GI50,OVCAR-8,> 100 µM (inactive)
same,GI50,CCRF-CEM,> 100 µM (inactive)
same,GI50,OVCAR-5,> 100 µM (inactive)
same,GI50,MOLT-4,> 100 µM (inactive)
same,GI50,RXF 393,> 100 µM (inactive)
same,GI50,XF498,> 100 µM (inactive)
same,GI50,SK-OV-3,> 100 µM (inactive)
same,GI50,A549,> 100 µM (inactive)
